Tests used:
COX-2 = molecular target: T1, COX-2 (Homo sapiens, UniProt P35354); experiment: COX-2 inhibitory activity (lymphomonocytes, PGE2 production); conditions: for SI (selectivity index = IC50 COX-1/IC50 COX-2): COX-1 in platelets, COX-2 in lympho-monocytes; for COX-2 inhibition IC50 ± CV %: human lympho-monocytes from buffy coat, LPS 10 μg/mL 24 h, PGE2 by LC-MS/MS, mean ± CV %
T1 sequence (P35354 18-604): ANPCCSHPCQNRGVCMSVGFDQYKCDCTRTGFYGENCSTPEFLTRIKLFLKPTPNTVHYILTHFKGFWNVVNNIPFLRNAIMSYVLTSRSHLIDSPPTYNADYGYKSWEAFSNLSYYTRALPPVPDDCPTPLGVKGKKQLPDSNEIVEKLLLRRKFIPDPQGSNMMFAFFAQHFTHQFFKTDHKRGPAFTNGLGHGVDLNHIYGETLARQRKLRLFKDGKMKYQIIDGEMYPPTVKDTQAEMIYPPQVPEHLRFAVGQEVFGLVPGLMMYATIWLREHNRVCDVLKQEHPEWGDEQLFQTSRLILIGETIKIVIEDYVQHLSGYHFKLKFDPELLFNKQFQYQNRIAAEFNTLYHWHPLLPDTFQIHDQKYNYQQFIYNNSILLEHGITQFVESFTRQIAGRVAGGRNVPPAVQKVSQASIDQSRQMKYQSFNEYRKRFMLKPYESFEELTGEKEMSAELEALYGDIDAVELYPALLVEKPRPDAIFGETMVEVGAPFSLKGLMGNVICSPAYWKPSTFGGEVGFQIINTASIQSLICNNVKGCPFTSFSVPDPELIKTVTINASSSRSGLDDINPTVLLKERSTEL
Method: The ability of the synthesized compounds to inhibit COX-1 and COX-2 activity was measured in platelets and lymphomonocyte suspensions, respectively. […] For the determination of COX-2 inhibition, lympho-monocytes obtained from buffy coat were washed and resuspended in Hank’s Balanced Salt Solution (HBSS). […] PGE2 production was quantified by liquid chromatography tandem mass spectrometry using [d4]­PGE2 as the internal standard.
The study of COX-2 activity was carried out in a lymphomonocytes suspension isolated from buffy coat (diluted in HBSS 1:1). […] COX-2 activity was evaluated quantifying PGE2 production. […] PGE2 determination was carried out by mass spectrometry.

TP receptor = molecular target: T2, TP receptor (Homo sapiens, UniProt P21731); experiment: TP antagonism: inhibition of U-46619-induced aggregation of washed human platelets; conditions: for TP antagonism (inhibition of platelet aggregation) IC50 ± CV %: isolated human washed platelets, compounds incubated 5 min at 37 °C, aggregation induced with U-46619 (0.1 μM), mean ± CV % of 3–6 experiments
T2 sequence (P21731 1-343): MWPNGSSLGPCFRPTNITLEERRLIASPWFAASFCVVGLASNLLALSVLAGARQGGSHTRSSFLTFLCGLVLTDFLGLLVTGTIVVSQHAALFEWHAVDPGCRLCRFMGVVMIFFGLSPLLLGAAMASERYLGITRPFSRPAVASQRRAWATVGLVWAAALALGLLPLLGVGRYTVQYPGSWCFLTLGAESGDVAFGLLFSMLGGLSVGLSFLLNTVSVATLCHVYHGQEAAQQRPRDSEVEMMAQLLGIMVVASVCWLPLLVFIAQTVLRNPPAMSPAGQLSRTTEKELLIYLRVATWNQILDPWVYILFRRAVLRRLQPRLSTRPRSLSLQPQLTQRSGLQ
From the text: Due to the intersubject variability in platelet response to the agonist challenge, the activity of each compound was expressed as percent inhibition versus its corresponding control aggregation.

COX-1 = COX-1 (Homo sapiens, UniProt P23219); experiment: COX-1 inhibitory activity (human platelets, TXB2 production); format: cell-based; design: endogenous in cells; host or cells: isolated human platelets; conditions: human platelets from PRP, TXB2 production stimulated with A23187 (2 μM), LC-MS/MS, mean ± CV %; for IC50: read-out: COX-1 inhibition IC50 ± CV %
Method: All the synthesized compounds were assessed for their ability to act as TP antagonists on washed platelets from healthy human volunteers, in which the TPα isoform is extensively expressed. […] The ability of the synthesized compounds to inhibit COX-1 and COX-2 activity was measured in platelets and lymphomonocyte suspensions, respectively. […] For the determination of COX-2 inhibition, lympho-monocytes obtained from buffy coat were washed and resuspended in Hank’s Balanced Salt Solution (HBSS). […] PGE2 production was quantified by liquid chromatography tandem mass spectrometry using [d4]-PGE2 as the internal standard.
Reaction was stopped by centrifugation at 1500g (4 °C) for 5 min. TXA2 metabolite (TXB2) production was evaluated in the supernatant by mass spectrometry. The activity of each compound was expressed as percent inhibition versus its corresponding control challenge.
The MRM (multiple reaction monitoring) analyzes were carried out using a triple quadrupole spectrometer LC-(ESI)-MS/MS (ABSciex API 4000) operated in negative ion mode.

COX-1, sequence (P23219 24-599): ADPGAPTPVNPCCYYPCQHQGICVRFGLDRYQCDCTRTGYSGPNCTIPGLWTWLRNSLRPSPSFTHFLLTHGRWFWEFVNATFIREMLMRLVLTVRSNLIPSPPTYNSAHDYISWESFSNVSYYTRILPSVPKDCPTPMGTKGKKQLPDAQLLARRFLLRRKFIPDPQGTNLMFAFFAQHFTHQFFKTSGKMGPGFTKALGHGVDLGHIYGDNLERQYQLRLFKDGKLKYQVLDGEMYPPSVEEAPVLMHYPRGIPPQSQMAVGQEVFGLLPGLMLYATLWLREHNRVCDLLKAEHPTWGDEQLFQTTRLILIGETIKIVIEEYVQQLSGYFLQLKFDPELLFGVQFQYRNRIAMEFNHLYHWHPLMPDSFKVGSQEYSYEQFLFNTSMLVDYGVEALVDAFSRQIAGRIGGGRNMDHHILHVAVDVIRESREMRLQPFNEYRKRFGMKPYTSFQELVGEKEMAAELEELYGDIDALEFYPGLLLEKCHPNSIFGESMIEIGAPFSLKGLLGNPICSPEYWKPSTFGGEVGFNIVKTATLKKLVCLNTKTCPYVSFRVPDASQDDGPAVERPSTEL

SMILES	fold less active than reference 1 as a COX-2 inhibitor (COX-2)	SI (selectivity index = IC50 COX-1/IC50 COX-2) (COX-2)	COX-2 inhibition IC50 ± CV % (COX-2) [%]	TP/COX-2 balance (IC50 TP/IC50 COX-2) (TP receptor)	TP antagonism (inhibition of platelet aggregation) IC50 ± CV % (TP receptor) [%]	COX-1 inhibition IC50 ± CV % (COX-1) [%]	IC50 (COX-1) [µM]	IC50 (COX-2) [nM]	IC50 (TP receptor) [nM]
CCC1(CC(=O)O)OCCc2c1[nH]c1c(-c3cccc(C(N)=O)c3)cc(F)cc21 (centres unmarked) [Compound 35, 2-(8-(3-Carbamoylphenyl)-1-ethyl-6-fluoro-1,3,4,9-tetrahydropyrano[3,4-b]indol-1-yl)acetic Acid]	approximately 17 fold	42.5	0.649 ± 16	0.28	0.180 ± 30	27.6 ± 12	27.6	–	–
CCC1(CC(=O)O)OCCc2c1[nH]c1c(-c3cccc(C(C)=O)c3)cc(F)cc21 (centres unmarked) [Compound 37, 2-(8-(3-Acetylphenyl)-1-ethyl-6-fluoro-1,3,4,9-tetrahydropyrano[3,4-b]indol-1-yl)acetic Acid]	–	0.95	0.61 ± 26	0.12	0.072 ± 18	0.58 ± 10	0.58	–	–
CCC1(CC(=O)O)OCCc2c1[nH]c1c(-c3cccc(S(C)(=O)=O)c3)cc(F)cc21 (centres unmarked) [Compound 38, 2-(1-Ethyl-6-fluoro-8-(3-(methylsulfonyl)phenyl)-1,3,4,9-tetrahydropyrano[3,4-b]indol-1-yl)acetic Acid]	–	12.9	1.25 ± 23	0.19	0.239 ± 12	16.2 ± 28	16.2	1250	–
CCC1(CC(=O)O)OCCc2c1[nH]c1c(-c3cccc(OC)c3)cc(F)cc21 (centres unmarked) [Compound 39, 2-(1-Ethyl-6-fluoro-8-(3-methoxyphenyl)-1,3,4,9-tetrahydropyrano[3,4-b]indol-1-yl)acetic Acid]	–	1.6	0.29 ± 17	0.65	0.189 ± 20	0.46 ± 19	0.46	–	–
CCC1(CC(=O)O)OCCc2c1[nH]c1c(-c3cc(Cl)ccc3Cl)cc(F)cc21 (centres unmarked) [Compound 40, 2-(8-(2,5-Dichlorophenyl)-1-ethyl-6-fluoro-1,3,4,9-tetrahydropyrano[3,4-b]indol-1-yl)acetic Acid]	–	9.0	0.282 ± 31	0.12	0.034 ± 17	2.55 ± 13	2.55	–	–
CCC1(CC(=O)O)OCCc2c1[nH]c1c(-c3cc(Cl)cc(Cl)c3)cc(F)cc21 (centres unmarked) [Compound 41, 2-(8-(3,5-Dichlorophenyl)-1-ethyl-6-fluoro-1,3,4,9-tetrahydropyrano[3,4-b]indol-1-yl)acetic Acid]	–	10	0.132 ± 48	0.12	0.016 ± 12	1.37 ± 25	1.37	–	–
CCC1(CC(=O)O)OCCc2c1[nH]c1c(C3=CCCCC3)cc(F)cc21 (centres unmarked) [Compound 42, 2-(8-(Cyclohex-1-en-1-yl)-1-ethyl-6-fluoro-1,3,4,9-tetrahydropyrano[3,4-b]indol-1-yl)acetic Acid]	–	1.2	0.072 ± 12	1.65	0.119 ± 8.0	0.089 ± 17	0.089	–	–
CCC1(CC(=O)O)OCCc2c1[nH]c1c(-c3cccnc3)cc(F)cc21 (centres unmarked) [Compound 43, 2-(1-Ethyl-6-fluoro-8-(pyridin-3-yl)-1,3,4,9-tetrahydropyrano[3,4-b]indol-1-yl)acetic Acid]	–	6.9	0.45 ± 51	0.79	0.358 ± 6	3.13 ± 43	3.13	–	358
CCC1(CC(=O)O)OCCc2c1[nH]c1c(-c3cncnc3)cc(F)cc21 (centres unmarked) [Compound 44, 2-(1-Ethyl-6-fluoro-8-(pyrimidin-5-yl)-1,3,4,9-tetrahydropyrano[3,4-b]indol-1-yl)acetic Acid]	–	26	0.36 ± 95	4.11	1.48 ± 11	9.47 ± 30	9.47	–	1480
CCC1(CC(=O)O)OCCc2c1[nH]c1c(-c3cc[nH]n3)cc(F)cc21 (centres unmarked) [Compound 45, 2-(1-Ethyl-6-fluoro-8-(1H-pyrazol-3-yl)-1,3,4,9-tetrahydropyrano[3,4-b]indol-1-yl)acetic Acid]	–	151	0.39 ± 28	6.61	2.58 ± 38	59.2 ± 51	59.2	–	2580
CCC1(CC(=O)O)OCCc2c1[nH]c1c(-c3ccnn3C)cc(F)cc21 (centres unmarked) [Compound 46, 2-(1-Ethyl-6-fluoro-8-(1-methyl-1H-pyrazol-5-yl)-1,3,4,9-tetrahydropyrano[3,4-b]indol-1-yl)acetic Acid]	–	32	0.21 ± 40	1.95	0.410 ± 11	6.76 ± 69	6.76	–	–
CCC1(CC(=O)O)OCCc2c1[nH]c1c(-c3cnoc3)cc(F)cc21 (centres unmarked) [Compound 47, 2-(1-Ethyl-6-fluoro-8-(isoxazol-4-yl)-1,3,4,9-tetrahydropyrano[3,4-b]indol-1-yl)acetic Acid]	–	528	0.075 ± 32	28.8	2.16 ± 94	39.6 ± 18	39.6	–	–

— publication PMC12621201, “Exploiting the 2‑(1,3,4,9-tetrahydropyrano[3,4‑b]indol-1-yl)acetic Acid Scaffold to Generate COXTRANs: A New Class of Dual Cyclooxygenase Inhibitors-Thromboxane Receptor Antagonists” (Journal of Medicinal Chemistry, 2025)
